Assay results as given in US4049660A, “N-substituted derivatives of 4 (N-piperazinylmethyl) spiro dibenzocycloheptadi- (or tri-) ene-5, 2-dioxolane (1,3) their method of preparation and their application in therapeutics” (Delalande S.A., priority 1971, dated 1977).
Read-outs that look alike come from different tables or passages of the source.

Key:
[1] = test system: cough caused by stimulation of the upper laryngeal nerve; assay: Anti-cough: cough caused by stimulation of the upper laryngeal nerve in an anaesthetized cat; format: in vivo
[2] = Acute toxicity / mortality, oral, mice; format: in vivo; conditions: mouse, in vivo; for mortality: read-out: Percentage of mortality with mice; for LD50: oral
Excerpt: As is shown by the preceding results and by those given in Table XIV below, the difference between pharmacologically active doses and lethal doses is sufficiently great to allow the use of compounds of formula (I) in therapeutics.

[3] = test system: bronchoconstrictions provoked by serotonine; assay: Antiserotonine: bronchoconstrictions provoked by intravenous serotonine in guinea pigs (Konzett and Rossler test); format: in vivo; conditions: Cavia porcellus, serotonine bronchoconstriction, read-out: Test of Konzett and Rossler DE50
Excerpt: (§1) For purposes of comparison, compounds of the formula (I) were compared, as to their antiserotonine properties, with a respresentative sampling of compounds disclosed in U.S. Pat. No. 3,726,900. The comparison compounds tested have the formula [drawing 23]

arterial pressure = assay: Hypotensive: arterial pressure of anaesthetized rat; format: in vivo; conditions: 2 mg/kg/IV
Excerpt: Administered intravenously to an anaesthetized rat, the compounds of formula (I) cause a lowering of arterial pressure.

[4] = test system: isolated tied uterus (serotonine); assay: Antiserotonine: contractions of the isolated tied uterus provoked by serotonine; conditions: in vitro
Excerpt: as §1

[5] = test system: painful stretchings following intraperitoneal injection of acetic acid; assay: Analgesic: painful stretchings following intraperitoneal acetic acid in mouse; format: in vivo; conditions: 100 mg/kg/PO, read-out: Percentage reduction in the number of painful stretchings
Excerpt: The compounds of formula (I) administered orally to a mouse are capable of reducing the number of painful stretchings following the intraperitoneal injection of acetic acid.

[6] = test system: ptosis caused by reserpine; assay: Anti-depressive: antagonism against ptosis caused by intravenous reserpine; format: in vivo
Method: (§2) In this regard, the compounds of formula I differ unexpectedly from the compounds of U.S. Pat. No. 3,726,900, as shown by comparative testing.
(§3) The anti-depressive properties of additional analog compounds were tested by the same tests. In these tests, the comparison compounds had the formula [drawing 28] The specific compounds tested and the test results are indicated in Table XIII.

[7] = test system: lethal effect of yohimbine; assay: Anti-depressive: potentialization of lethal effect of yohimbine; format: in vivo; conditions: at 100 mg/kg/PO, result in words
Method: as §2, §3

[8] = test system: isolated duodenum of a rat (barium chloride); assay: Spasmolytic: contraction by barium chloride of isolated duodenum of a rat; conditions: for Spasmolytic activity: relative to papaverine as the standard
Method: Compounds of formula I, introduced in the survival medium, are capable of opposing the contacting action of barium chloride on the isolated duodenum of a rat. This activity is determined either by taking papaverine as the standard or by calculating the DE50 of the compound tested.

[9] = test system: isolated fundus of rats (serotonine); assay: Antiserotonine: contractions of the isolated fundus of rats provoked by serotonine; conditions: in vitro
Excerpt: as §1

[10] = test system: ventricular fibrillations caused by inhaling chloroform; assay: Antiarythmic: ventricular fibrillations caused by inhaling chloroform in mouse; format: in vivo; conditions: ip, intraperitoneal, read-out: Antagonism to fibrillations caused by chloroform with a mouse, DE50
Excerpt: Administered intraperitoneally, the compounds of formula (I) are able to protect the mouse against ventricular fibrillations caused by inhaling chloroform.

urinary elimination = assay: Diuretic: volume of urine in mouse; format: in vivo; conditions: 4 hours, versus controls, read-out: Percentage increase in urinary elimination; for change in vivo at 12.5 mg/kg: 12.5 mg/kg/PO
Method: The compounds of formula (I) administered orally to a mouse simultaneously with a volume of 1 ml of sodium chloride isotonic solute per 25 g of body weight are able to cause an increase of the volume of urine given compared with controls, this volume being measured for the 4 hours following administration.

[11] = test system: isolated ileum of a guinea pig (histamine); assay: Antihistamine: contraction by histamine of isolated ileum of a guinea pig
Method: The compounds of formula (I) introduced in the survival medium are able to oppose the contracting action of histamine on the isolated ileum of a guinea pig. This activity is calculated by the DE50 of the tested compounds.

[12] = test system: local edema caused by carraghenine; assay: Antiinflammatory: local plantar edema caused by carraghenine in rat; format: in vivo; conditions: 100 mg/kg/PO
Excerpt: These properties bring about a reduction of the local edema, caused by injecting a rat under the plantar with a phlogogenic agent such as carraghenine, following oral administration of compounds of formula (I).

[13] = mice, Table XI, read-out: LD50 (mice)
[14] = at 50 mg/kg/PO, result in words

Row | SMILES | LD50 [2, 13] | ED50 [3] | Reduction of arterial pressure, duration (arterial pressure) | Reduction of arterial pressure, intensity (arterial pressure) | Antagonisms against contractions of tied uterus, DE50 [4] | inhibition in vivo at 100 mg/kg [5] | Antagonism against ptosis caused by reserpine ([6]; at 100 mg/kg/PO) | Potentialization of lethal effect of yohimbine [7] | Spasmolytic activity [8] | ED50 [10] | DE50 (spasmolytic) [8] | Antihistamine activity DE50 [11] | other results
1 | CC(C)NC(=O)CN1CCN(CC2COC3(O2)c2ccccc2CCc2ccccc23)CC1 (stereo not shown) [compound 70347] | 1200 mg/kg | 0.5 mg/kg | > 30 mm | 50% | 0.02 µg/mL | 70% | Inactive | Inactive | 1.5 × papaverine | – | – | – | Reduction of cough, duration ([1]; 1 mg/kg/IV): 20 mm; Reduction of cough, intensity ([1]; 1 mg/kg/IV): 80%; mortality ([2]; 1200 mg/kg/PO): ~50%
2 | O=C(CN1CCN(CC2COC3(O2)c2ccccc2CCc2ccccc23)CC1)N1CCOCC1 (stereo not shown) [compound 70357] | 1300 mg/kg | 0.005 mg/kg | – | – | 0.005 µg/mL | – | Inactive | Inactive | 1.5 × papaverine | – | – | – | Reduction of cough, duration ([1]; 2 mg/kg/IV): 20 mm; Reduction of cough, intensity ([1]; 2 mg/kg/IV): 100%; mortality ([2]; 1300 mg/kg/PO): ~50%; Antagonisms against contractions of fundus of rat, DE50 [9]: 0.54 µg/mL
3 | CCOC(=O)CN1CCN(CC2COC3(O2)c2ccccc2CCc2ccccc23)CC1 (stereo not shown) [compound 70365] | 1250 mg/kg | 0.6 mg/kg | – | – | – | 75% | Inactive | Inactive | 3 × papaverine | – | – | – | mortality ([2]; 1250 mg/kg/PO): ~50%
4 | c1ccc(C(c2ccccc2)N2CCN(CC3COC4(O3)c3ccccc3CCc3ccccc34)CC2)cc1 (stereo not shown) [compound 70374] | – | – | 20 mm | 35% | – | – | Inactive | Inactive | – | – | – | – | mortality ([2]; 2000 mg/kg/PO): 0%; LD50 ([2]; Table XII, read-out: LD50): > 2000 mg/kg
5 | OCC(O)CN1CCN(CC2COC3(O2)c2ccccc2CCc2ccccc23)CC1 (stereo not shown) [compound 70405, 4'-N'-(2",3"-dihydroxy "-propyl)N-piperazinyl methyl spiro dibenzo (a,d) cycloheptadiene-5:2' dioxolane (1',3') dimaleate] | – | – | > 60 mm | 40% | – | – | – | – | – | – | – | – | Reduction of cough, duration ([1]; 100 mg/kg/ID): 60 mm; Reduction of cough, intensity ([1]; 100 mg/kg/ID): 100%; mortality ([2]; 1600 mg/kg/PO): ~50%
6 | O=C(CN1CCN(CC2COC3(O2)c2ccccc2C=Cc2ccccc23)CC1)N1CCOCC1 (stereo not shown) [compound 71564] | 3500 mg/kg | 0.05 mg/kg | – | – | 0.001 µg/mL | – | – | – | – | 200 mg/kg | 2.50 µg/mL | – | mortality ([2]; 3500 mg/kg/PO): ~50%; Antagonisms against contractions of fundus of rat, DE50 [9]: 0.74 µg/mL; change in vivo at 12.5 mg/kg (urinary elimination): 50%
7 | CC(C)NC(=O)CN1CCN(CC2COC3(O2)c2ccccc2C=Cc2ccccc23)CC1 (stereo not shown) [compound 72134] | 1200 mg/kg | – | – | – | – | – | – | – | – | 65 mg/kg | – | 1 µg/mL | mortality ([2]; 1200 mg/kg/PO): ~50%; Antagonism against ptosis caused by reserpine [6, 14]: Inactive; change in vivo at 50 mg/kg (urinary elimination; 50 mg/kg/PO): 55%
8 | O=C(CN1CCN(CC2COC3(O2)c2ccccc2C=Cc2ccccc23)CC1)N1CCCCCC1 (stereo not shown) [compound 72176] | – | – | – | – | – | – | – | – | – | 100 mg/kg | 3.50 µg/mL | 0.5 µg/mL | mortality ([2]; 3400 mg/kg/PO): ~50%
9 | CNC(=O)CN1CCN(CC2COC3(O2)c2ccccc2C=Cc2ccccc23)CC1 (stereo not shown) [compound 72188] | 1100 mg/kg | 0.25 mg/kg | – | – | – | 60% | – | – | – | 38 mg/kg | – | 1 µg/mL | mortality ([2]; 1100 mg/kg/PO): ~50%; Antagonism against ptosis caused by reserpine [6, 14]: Inactive; change in vivo at 25 mg/kg (urinary elimination; 25 mg/kg/PO): 40%
10 | OCC(O)CN1CCN(CC2COC3(O2)c2ccccc2C=Cc2ccccc23)CC1 (stereo not shown) [compound 72196] | 1100 mg/kg | – | – | – | – | 45% | – | – | – | – | 0.25 µg/mL | 1 µg/mL | mortality ([2]; 1100 mg/kg/PO): ~50%; Percentage reduction of the edema [12]: 70%; change in vivo at 12.5 mg/kg (urinary elimination): 40%
